Test results published in ChEMBL document CHEMBL4130452, “Design of Selective Benzoxazepin PI3Kδ Inhibitors Through Control of Dihedral Angles” (ACS Med Chem Lett, 2017).
pIC50, pKi: −log10 of the molar value.

Legend:
[1] = Stability in human liver microsomes at 1 uM in presence of NADPH by LC-MS/MS analysis; assay type: ADME, microsome; details: read-out: Stability
[2] = molecular target: T1, Phosphatidylinositol 4,5-bisphosphate 3-kinase catalytic subunit delta isoform (Homo sapiens, UniProt O00329); assay: Binding affinity to PI3Kdelta (unknown origin); details: read-out: Ki(app)
T1 sequence (O00329 whole entry): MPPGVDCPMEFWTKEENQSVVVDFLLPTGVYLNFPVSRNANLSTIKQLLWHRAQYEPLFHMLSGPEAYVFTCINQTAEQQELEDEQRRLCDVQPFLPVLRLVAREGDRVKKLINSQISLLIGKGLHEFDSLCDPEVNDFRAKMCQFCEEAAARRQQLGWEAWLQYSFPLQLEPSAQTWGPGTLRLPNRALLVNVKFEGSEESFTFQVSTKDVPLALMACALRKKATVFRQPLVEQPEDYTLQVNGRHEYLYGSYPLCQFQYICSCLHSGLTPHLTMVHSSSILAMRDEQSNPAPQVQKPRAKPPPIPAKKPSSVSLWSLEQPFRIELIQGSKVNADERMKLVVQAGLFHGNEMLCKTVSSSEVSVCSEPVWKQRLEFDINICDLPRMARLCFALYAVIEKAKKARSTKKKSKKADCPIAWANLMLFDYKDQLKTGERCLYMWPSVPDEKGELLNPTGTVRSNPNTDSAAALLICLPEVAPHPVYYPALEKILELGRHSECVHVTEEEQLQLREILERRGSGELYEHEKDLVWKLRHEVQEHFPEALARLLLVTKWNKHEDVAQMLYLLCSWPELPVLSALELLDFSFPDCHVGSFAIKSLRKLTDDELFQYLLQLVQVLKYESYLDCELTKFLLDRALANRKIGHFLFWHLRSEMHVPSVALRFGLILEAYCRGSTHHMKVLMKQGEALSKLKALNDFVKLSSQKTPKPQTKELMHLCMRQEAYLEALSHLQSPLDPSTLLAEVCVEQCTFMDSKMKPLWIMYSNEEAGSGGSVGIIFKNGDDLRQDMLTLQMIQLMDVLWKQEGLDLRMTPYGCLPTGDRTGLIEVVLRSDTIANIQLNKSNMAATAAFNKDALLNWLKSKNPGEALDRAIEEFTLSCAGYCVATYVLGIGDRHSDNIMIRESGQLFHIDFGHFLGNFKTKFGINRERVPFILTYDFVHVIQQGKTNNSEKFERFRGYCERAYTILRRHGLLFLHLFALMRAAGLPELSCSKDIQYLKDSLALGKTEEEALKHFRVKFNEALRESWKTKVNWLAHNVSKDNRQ

[3] = molecular target: T1, Phosphatidylinositol 4,5-bisphosphate 3-kinase catalytic subunit delta isoform; assay: Inhibition of PI3Kdelta in human whole blood assessed as suppression of CD69 expression
[4] = Apparent permeability from apical to basolateral side in MDCKI cells at 10 uM after 2 hrs; assay type: ADME, cell-based, Canis lupus familiaris; details: dog, MDCK

CLhep predicted at 1 µM [1] [mL/min/kg]	pKi [2]	pIC50 [3]	Papp A→B at 2 h, 10 µM [4] [×10⁻⁶ cm/s]	SMILES
9.7	8.60	–	–	CC(C)n1ncnc1-c1cn2c(n1)-c1cc(CN3CCN(C(C)(C)C)CC3)ccc1OCC2
14	8.77	–	–	CC(C)n1ncnc1-c1cn2c(n1)-c1cc(C(=O)N3CCN(C(C)(C)C)CC3)ccc1OCC2
15	9.11	7.82	13.6	Cc1nc(-c2cn3c(n2)-c2cc([C@@H](C)N4CCN(C(C)(C)C)CC4)c(F)cc2OCC3)n(C(C)C)n1
–	8.62	–	–	Cc1nc(-c2cn3c(n2)-c2cc([C@H](C)N4CCN(C(C)(C)C)CC4)c(F)cc2OCC3)n(C(C)C)n1
8.4	–	–	14.2	Cc1nc(-c2cn3c(n2)-c2cc([C@@H](C)N4CCN(C(C)(C)C)CC4)c(C)cc2OCC3)n(C(C)C)n1
< 3.9	8.72	7.55	10	Cc1nc(-c2cn3c(n2)-c2cc([C@H](C)N4CCN(C(C)(C)C)CC4)ncc2OCC3)n(C(C)C)n1
–	8.55	–	–	Cc1nc(-c2cn3c(n2)-c2cc([C@@H](C)N4CCN(C(C)(C)C)CC4)ncc2OCC3)n(C(C)C)n1
20	8.92	–	–	CC(C)n1ncnc1-c1cn2c(n1)-c1cc(S(=O)(=O)N3CCN(C(C)(C)C)CC3)ccc1OCC2
6.8	7.70	–	–	CC(C)n1ncnc1-c1cn2c(n1)-c1cc(CN3CCC(C(C)(C)O)CC3)ccc1OCC2
12	7.92	–	–	CC(C)n1ncnc1-c1cn2c(n1)-c1cc([S@+]([O-])C3CCN(C(C)(C)C)CC3)ccc1OCC2
17	9.09	–	–	CC(C)n1ncnc1-c1cn2c(n1)-c1cc([S@@+]([O-])C3CCN(C(C)(C)C)CC3)ccc1OCC2
